In brackets after ≈: the same amount, converted by molar mass.

Type in all cases: functional
Assay [1] relates to Streptococcus pyogenes. The experiment in a line: Antibacterial activity against inducible macrolide-lincosamide-streptogramin B-resistant Streptococcus pyogenes B0543 by agar microdilution method.
Assay [2] relates to Streptococcus pyogenes. The experiment in a line: Antibacterial activity against erythromycin A-susceptible Streptococcus pyogenes B0542 by agar microdilution method.
The subject of assay [3] is Streptococcus pneumoniae. The experiment in a line: Antibacterial activity against efflux-resistant Streptococcus pneumoniae B0326 by agar microdilution method.
Assay [4] deals with Streptococcus pneumoniae. The experiment in a line: Antibacterial activity against constitutive macrolide-lincosamide-streptogramin B-resistant Streptococcus pneumoniae B0627 by agar microdilution method.
For assay [5], the system named is Streptococcus pneumoniae. The experiment in a line: Antibacterial activity against erythromycin A-susceptible Streptococcus pneumoniae B0541 by agar microdilution method.
Assay [6] has as its system Staphylococcus aureus. The experiment in a line: Antibacterial activity against efflux-resistant Staphylococcus aureus B0331 by agar microdilution method.
For assay [7], the system named is Staphylococcus aureus. The experiment in a line: Antibacterial activity against constitutive macrolide-lincosamide-streptogramin B-resistant Staphylococcus aureus B0330 by agar microdilution method.
Assay [8] concerns Staphylococcus aureus. The experiment in a line: Antibacterial activity against inducible macrolide-lincosamide-streptogramin B-resistant Staphylococcus aureus B0538 by agar microdilution method.
Assay [9] has as its system Staphylococcus aureus. The experiment in a line: Antibacterial activity against erythromycin A-susceptible Staphylococcus aureus B0329 by agar microdilution method.
The subject of assay [10] is Streptococcus pyogenes. The experiment in a line: Antibacterial activity against constitutive macrolide-lincosamide-streptogramin B-resistant Streptococcus pyogenes B0544 by agar microdilution method.
Assay [11] relates to Streptococcus pyogenes. The experiment in a line: Antibacterial activity against efflux-resistant Streptococcus pyogenes B0545 by agar microdilution method.
Another assay deals with Moraxella catarrhalis. The experiment in a line: Antibacterial activity against Moraxella catarrhalis B0324 by agar microdilution method.
A further assay relates to Haemophilus influenzae. The experiment in a line: Antibacterial activity against Haemophilus influenzae B0529 by agar microdilution method.

As for `CC[C@H]1OC(=O)[C@H](C)[C@@H](O[C@H]2C[C@@](C)(OC)[C@@H](O)[C@H](C)O2)[C@H](C)[C@@H](O[C@@H]2O[C@H](C)C[C@H](N(C)C)[C@H]2O)[C@](C)(O)C[C@@H](C)CN(C)[C@H](C)[C@@H](O)[C@]1(C)O` [AZITHROMYCIN], the MIC in the assay with Streptococcus pyogenes [1] was 8 µg/mL (≈ 10.7 µM); in the assay on Streptococcus pyogenes [2], not above 0.125 µg/mL; in the assay on Streptococcus pneumoniae [3], 4 µg/mL (≈ 5.34 µM); against Streptococcus pneumoniae [4] it was more than 64 µg/mL; with Streptococcus pneumoniae [5], not above 0.125 µg/mL; with Staphylococcus aureus [6], more than 64 µg/mL. Also, the MIC in the assay with Staphylococcus aureus [7] was more than 64 µg/mL; against Staphylococcus aureus [8], more than 64 µg/mL; in the assay with Staphylococcus aureus [9], 1 µg/mL (≈ 1.34 µM); against Streptococcus pyogenes [10], more than 64 µg/mL; in the assay with Streptococcus pyogenes [11], 1 µg/mL (≈ 1.34 µM); against Moraxella catarrhalis it was 0.25 µg/mL (≈ 0.334 µM). In addition, the MIC against Haemophilus influenzae was determined as 1 µg/mL (≈ 1.34 µM).
Consider `CC[C@H]1OC(=O)[C@H](C)C(=O)[C@H](C)[C@@H](O[C@@H]2O[C@H](C)C[C@H](N(C)C)[C@H]2O)[C@](C)(OC/C=C/c2cnc3ccccc3c2)C[C@@H](C)C(=O)N[C@H](C)[C@H](O)[C@@]1(C)OC/C=C/c1cnc2ccccc2c1`, for which the MIC is 0.5 µg/mL (≈ 0.542 µM) against Streptococcus pyogenes [1]; not above 0.125 µg/mL in the assay on Streptococcus pyogenes [2]; 0.5 µg/mL (≈ 0.542 µM) in the assay on Streptococcus pneumoniae [3]; 4 µg/mL (≈ 4.33 µM) against Streptococcus pneumoniae [4]; not above 0.125 µg/mL in the assay with Streptococcus pneumoniae [5]; 0.5 µg/mL (≈ 0.542 µM) in the assay on Staphylococcus aureus [6]. In addition, the MIC is more than 64 µg/mL with Staphylococcus aureus [7]; 0.25 µg/mL (≈ 0.271 µM) against Staphylococcus aureus [8]; not above 0.125 µg/mL with Staphylococcus aureus [9]; 8 µg/mL (≈ 8.67 µM) against Streptococcus pyogenes [10]; 0.5 µg/mL (≈ 0.542 µM) against Streptococcus pyogenes [11]; 0.125 µg/mL (≈ 0.135 µM) against Moraxella catarrhalis. Also, in the assay on Haemophilus influenzae, the MIC came out at 4 µg/mL (≈ 4.33 µM).

For the origin of these results see ChEMBL document CHEMBL1287771, “Novel hybrids of 15-membered 8a- and 9a-azahomoerythromycin A ketolides and quinolones as potent antibacterials” (2010).
